From PubChem BioAssay AID977621 (Broad Institute, 2014)
Inconclusive results are not listed. Calls of active or inactive are those of the source.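 How the source made its calls: active means Wild-type ribosome reporter drop at least double the humanized mutant ribosome reporter drop, growth loss under a set limit; inconclusive means no clear call, values can overlap the other calls; inactive means the rest.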

System: E. coli wild-type GFP strain growth, fluorescence, 24 h
Experiment: wild-type E. coli growth inhibition versus H69 humanized strain – H69 mutant RFP, wild-type GFP, cherry-pick, dose response (AID 977621);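 further: wild-type GFP and H69 mutant RFP strains grown together 50/50 in each well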
[1] = E. coli mixed culture, 24 h, measured here: total growth OD600, test 2

Q: With `COc1ccc(NS(=O)(=O)c2ccc(NC(=O)c3ccccc3Br)cc2)nn1` as the molecule, how does the AC50 read?
A: > 100 µM (inactive)

Q: Which AC50 [1] does the source give for `C=CCn1c(C)cc(C(=O)CSc2nnc(C3CC3)n2C2CC2)c1C` here?
A: > 100 µM

Q: `CN(C)CCCNc1ccc(-c2cc(Nc3cccc(Cl)c3)ncn2)cn1` was tested. Which AC50 did it give?
A: > 100 µM (inactive)

Q: What about the AC50 [1] of the same molecule?
A: > 100 µM

Q: How did the AC50 turn out when `Cc1cc(Br)ccc1SCC(=O)OCC(=O)NCc1ccco1` was run?
A: > 100 µM (inactive)

Q: For `CN(c1ccc(C(=O)NCc2cccs2)cc1)S(=O)(=O)c1ccccc1`, which AC50 [1] is on record?
A: < 0.6 µM

Q: Which AC50 does the source give for `CCOC(=O)c1cnc2c(cnn2C)c1NCc1ccc(OC)cc1` here?
A: > 100 µM (inactive)

Q: And the AC50 [1]?
A: > 100 µM

Q: How did the AC50 turn out when `O=C(Nc1ccc(S(=O)(=O)N2CCCC2)cc1)c1ccc(OCC2CCCO2)cc1` (configuration not stated) was run?
A: > 100 µM (inactive)

Q: Which AC50 does the source give for `COc1cccc(NS(=O)(=O)c2ccc(-c3coc(C)n3)cc2)c1` here?
A: > 100 µM (inactive)

Q: And the AC50 [1]?
A: 3.29 µM

Q: How did the AC50 turn out when `COc1cccc(NC(=O)C2CCC(CNS(=O)(=O)c3cccs3)CC2)c1` (configuration not stated) was run?
A: > 100 µM (inactive)

Q: How did the AC50 turn out when `COc1ccc(C2=Nc3ccccc3NC(=O)C2N(C(=O)c2ccnc3ccccc23)c2ccccc2)cc1` (configuration not stated) was run?
A: > 100 µM (inactive)

Q: What about the AC50 [1] of the same molecule?
A: 34 µM

Q: Which AC50 does the source give for `O=C(Nc1ccccc1)N1CCCCN2[C@@H](CO)[C@H](c3ccc(Br)cc3)[C@@H]2C1` here?
A: > 100 µM (inactive)

Q: How did the AC50 turn out when `O=C(COC(=O)c1ccc([N+](=O)[O-])o1)NC12CC3CC(CC(C3)C1)C2` was run?
A: > 100 µM (inactive)

Q: And the AC50 [1]?
A: > 100 µM

Q: For `COc1ccc(OC)c(-c2nnc3n2N=C(c2ccc(OC)c(OC4CCOC4)c2)CS3)c1` (configuration not stated), which AC50 is on record?
A: > 100 µM (inactive)

Q: And the AC50 [1]?
A: > 100 µM

Q: Which results are given for `CCOc1ccccc1N(CC(=O)Nc1ccccc1F)S(=O)(=O)c1ccccc1`?
A: AC50: > 100 µM (inactive); AC50 [1]: 15.6 µM

Q: Which AC50 does the source give for `Cc1onc(-c2ccccc2)c1-c1nnc(-c2ccccc2C(F)(F)F)o1` here?
A: > 100 µM (inactive)

Q: Which AC50 [1] does the source give for `COc1cc(OC)c(NS(=O)(=O)c2cccc(C(=O)OCC(=O)NCC3CCCO3)c2)cc1Cl` (configuration not stated) here?
A: > 100 µM

Q: Which AC50 does the source give for `O=C(NCc1ccc(-c2nc3ccccc3s2)cc1)c1ccco1` here?
A: > 100 µM (inactive)

Q: With `O=C(COC(=O)C1CC1)Nc1nc(-c2ccc(F)c(F)c2)cs1` as the molecule, how does the AC50 [1] read?
A: > 100 µM

Q: With `CC(=O)Nc1cccc(Nc2nc(-c3ccccc3)nc3ccccc23)c1` as the molecule, how does the AC50 read?
A: > 100 µM (inactive)

Q: What about the AC50 [1] of the same molecule?
A: 5.27 µM

Q: Which AC50 does the source give for `Cc1cc(C)c2sc(N(CCN(C)C)C(=O)c3c(F)cccc3F)nc2c1` here?
A: > 100 µM (inactive)

Q: What about the AC50 [1] of the same molecule?
A: > 100 µM

Q: For `O=C(COC(=O)C1CC2C=CC1C2)NCCc1ccccc1` (configuration not stated), which AC50 [1] is on record?
A: > 100 µM

Q: Which AC50 does the source give for `CCCCCCCNC(=O)c1ccc(N2CCC3(CC2)OCCO3)c([N+](=O)[O-])c1` here?
A: > 100 µM (inactive)

Q: And the AC50 [1]?
A: 35.4 µM

Q: How did the AC50 turn out when `O=C(Nc1cccc(Cl)c1)N1C[C@H]2[C@@H](c3ccccc31)[C@H](CO)N2CC1CCCCC1` was run?
A: > 100 µM (inactive)

Q: Which AC50 does the source give for `CC(=O)Nc1ccc(NS(=O)(=O)c2ccc(Cl)s2)cc1` here?
A: > 100 µM (inactive)

Q: For `CSc1nc2ccc(NS(=O)(=O)c3ccc([N+](=O)[O-])cc3)cc2s1`, which AC50 [1] is on record?
A: < 0.6 µM

Q: Which AC50 does the source give for `Cc1c(C(=O)N(Cc2ccc(F)cc2)C2CCS(=O)(=O)C2)oc2ccccc12` (configuration not stated) here?
A: > 100 µM (inactive)

Q: `CC(=O)Nc1cccc(NC(=O)CSc2ccc(-c3cccnc3)nn2)c1` was tested. Which AC50 did it give?
A: > 100 µM (inactive)

Q: And the AC50 [1]?
A: 48.7 µM

Q: How did the AC50 turn out when `CCOc1ccc(S(=O)(=O)Nc2ccc(S(=O)(=O)N3CCCC3)cc2)cc1` was run?
A: > 100 µM (inactive)

Q: `CC(=O)OC(COc1cccc(C)c1)Cn1cnc2ccccc21` (configuration not stated) was tested. Which AC50 [1] did it give?
A: 48.6 µM

Q: How did the AC50 [1] turn out when `CCCCc1ccc(S(=O)(=O)Nc2ccc(C)c(NS(C)(=O)=O)c2)cc1` was run?
A: 49.5 µM

Q: Which AC50 [1] does the source give for `COc1ccc(-c2cc(C(=O)Nc3ccc(C(N)=O)cc3)c3ccccc3n2)cc1OC` here?
A: > 100 µM

Q: How did the AC50 turn out when `O=C(O)c1ccc(COc2ccc3ccccc3c2)o1` was run?
A: > 100 µM (inactive)

Q: And the AC50 [1]?
A: > 100 µM

Q: `O=C(CSc1nnc(-c2ccccc2F)n1C1CC1)Nc1cccnc1Cl` was tested. Which AC50 [1] did it give?
A: > 100 µM

Q: How did the AC50 [1] turn out when `C[C@H](CO)N1C[C@H](C)[C@H](CN(C)C(=O)Nc2ccc3c(c2)OCO3)Oc2c(NC(=O)Nc3ccccc3)cccc2C1=O` was run?
A: 48.4 µM

Q: For `Cc1c(C(=O)NCCSCc2cccc(C(F)(F)F)c2)cnn1-c1ccc(F)cc1`, which AC50 is on record?
A: > 100 µM (inactive)

Q: And the AC50 [1]?
A: 17.4 µM

Q: `NS(=O)(=O)c1cccc(NC(=O)CSc2nnc(-c3ccccc3F)n2C2CC2)c1` was tested. Which AC50 did it give?
A: > 100 µM (inactive)

Q: For `COc1cccc(NC2=Nc3cccc4cccc2c34)c1`, which AC50 [1] is on record?
A: > 100 µM

Q: With `O=C(Cn1cc(C(=O)c2ccco2)c2ccccc21)Nc1ccccc1F` as the molecule, how does the AC50 read?
A: > 100 µM (inactive)

Q: Which AC50 does the source give for `O=C(NCc1cccnc1)c1ccc(COc2ccccc2Br)o1` here?
A: > 100 µM (inactive)

Q: And the AC50 [1]?
A: 46.2 µM

Q: With `CN1CCN(c2nc(Nc3ccc(O)cc3)nc3ccccc23)CC1` as the molecule, how does the AC50 read?
A: > 100 µM (inactive)

Q: Which AC50 does the source give for `CCN(C(=O)COC(=O)CCc1ccccc1)c1ccccc1` here?
A: > 100 µM (inactive)

Q: And the AC50 [1]?
A: > 100 µM

Q: For `CS(=O)(=O)N(CC(=O)N1CCc2ccccc2C1)c1ccc(Br)cc1`, which AC50 is on record?
A: > 100 µM (inactive)

Q: What about the AC50 [1] of the same molecule?
A: 33.1 µM

Q: Which AC50 does the source give for `O=C(CN1C(=O)c2ccccc2C1=O)Nc1cccc(S(=O)(=O)Nc2ccccc2Cl)c1` here?
A: > 100 µM (inactive)

Q: What does the source list for `CCn1nc(C(=O)OCc2cccc(S(=O)(=O)N(C)C)c2)c2ccccc2c1=O`?
A: AC50: > 100 µM (inactive); AC50 [1]: > 100 µM

Q: For `O=C(O)CC1(CC(=O)NCc2ccc(-c3cccs3)cc2)CCCCC1`, which AC50 is on record?
A: > 100 µM (inactive)

Q: Which AC50 does the source give for `CCOc1ccc(NC(=O)CN(C)CC(=O)Nc2ccc(Br)cc2F)cc1OCC` here?
A: > 100 µM (inactive)

Q: And the AC50 [1]?
A: > 100 µM

Q: With `CN1C(=O)c2ccccc2OC1(C)Cc1ccccc1` (configuration not stated) as the molecule, how does the AC50 read?
A: > 100 µM (inactive)

Q: And the AC50 [1]?
A: 41.6 µM

Q: With `Cc1ccc(SCC(=O)Nc2ccc(S(=O)(=O)Nc3nccs3)cc2)cc1` as the molecule, how does the AC50 read?
A: > 100 µM (inactive)

Q: With `CC1Cc2cc(S(=O)(=O)N3CCN(c4cccc(Cl)c4)CC3)ccc2N1C(=O)C1CC1` (configuration not stated) as the molecule, how does the AC50 [1] read?
A: > 100 µM

Q: Which results are given for `O=C(Cc1cccnc1)N1CC(=O)N2[C@H](C1)[C@@H](c1ccc(C3=CCCCC3)cc1)[C@@H]2CO`?
A: AC50: > 100 µM (inactive); AC50 [1]: > 100 µM

Q: With `Cc1cc2nc(-c3ccc4c(c3)CCC4)ccn2n1` as the molecule, how does the AC50 read?
A: > 100 µM (inactive)

Q: What about the AC50 [1] of the same molecule?
A: > 100 µM

Q: Which results are given for `O=C(CSc1ccncc1)Nc1ccc2ccccc2c1`?
A: AC50: > 100 µM (inactive); AC50 [1]: 30 µM

Q: How did the AC50 [1] turn out when `CC(C)Sc1sc(C(=O)O)c(-c2ccc(Cl)cc2)c1C#N` was run?
A: 32.7 µM

Q: Which AC50 does the source give for `CN(CCOc1ccccc1)C(=O)c1ccc(OC2CCN(C(=O)C3CC3)CC2)cc1` here?
A: > 100 µM (inactive)

Q: With `Clc1ccc(-c2nc(NCCCN3CCOCC3)c3ccccc3n2)cc1` as the molecule, how does the AC50 read?
A: > 100 µM (inactive)

Q: Which AC50 [1] does the source give for `Cc1ccc(C2NC(c3ccc(C)cc3)C(C)C(=O)C2C)cc1` (configuration not stated) here?
A: 47.8 µM

Q: Which AC50 does the source give for `O=C(Cc1coc2cc(O)ccc12)N1CCN(S(=O)(=O)c2ccc(Br)cc2)CC1` here?
A: > 100 µM (inactive)

Q: What about the AC50 [1] of the same molecule?
A: 42.2 µM

Q: How did the AC50 turn out when `CSc1ccccc1OCc1cc(C(=O)N[C@H]2CCCCNC2=O)no1` was run?
A: > 100 µM (inactive)

Q: How did the AC50 [1] turn out when `COc1ccc(OC)c(NC(=O)COC(=O)C2CCN(C(=O)c3ccc(Cl)cc3)CC2)c1` was run?
A: > 100 µM

Q: For `CCOC(=O)c1cc(C)nc(N2CCCCC2)c1C#N`, which AC50 [1] is on record?
A: > 100 µM

Q: With `Cc1ccc(S(=O)(=O)N2CCCCC2C(=O)N2CCN(c3ccccc3F)CC2)cc1` (configuration not stated) as the molecule, how does the AC50 [1] read?
A: > 100 µM

Q: With `NC(=O)c1cc(NC(=O)c2cc(Br)c(Br)s2)cc(C(N)=O)c1` as the molecule, how does the AC50 read?
A: > 100 µM (inactive)

Q: Which AC50 does the source give for `CN(Cc1ccc(Cl)s1)C(=O)CNC(=O)CNC(=O)c1ccc(Cl)cc1Cl` here?
A: > 100 µM (inactive)

Q: With `Cc1ccc(Oc2ccc(S(=O)(=O)N3CCOCC3)cc2C(N)=O)cc1C` as the molecule, how does the AC50 read?
A: > 100 µM (inactive)
